Structures can show the parent of a compound that is named as a salt.
Biological target: T1, human MAO-B (Homo sapiens, UniProt P27338)
T1 construct: expressed in transfected cells; host or cells: EBNA cells (transient transfection); cell membranes used
T1 sequence (P27338 1-520): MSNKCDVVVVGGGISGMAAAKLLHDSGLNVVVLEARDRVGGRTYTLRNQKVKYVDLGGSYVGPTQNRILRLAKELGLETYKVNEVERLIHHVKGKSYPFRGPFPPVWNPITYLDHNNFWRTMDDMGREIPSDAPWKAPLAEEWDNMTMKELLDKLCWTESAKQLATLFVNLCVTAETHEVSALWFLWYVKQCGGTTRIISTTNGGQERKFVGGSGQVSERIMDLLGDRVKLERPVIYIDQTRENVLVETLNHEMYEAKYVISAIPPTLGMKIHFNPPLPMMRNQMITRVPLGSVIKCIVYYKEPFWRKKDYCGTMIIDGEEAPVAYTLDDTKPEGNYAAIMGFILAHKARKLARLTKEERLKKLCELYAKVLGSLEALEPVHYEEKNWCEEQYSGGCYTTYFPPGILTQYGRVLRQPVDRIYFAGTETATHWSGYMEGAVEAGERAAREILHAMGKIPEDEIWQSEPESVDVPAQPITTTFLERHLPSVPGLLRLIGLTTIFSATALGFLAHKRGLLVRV
Test: MAO-B enzymatic activity, spectrophotometric Amplex Red/peroxidase assay on membranes of transfected EBNA cells
Assay type: biochemical
Conditions: membranes preincubated with compound 30 min at 37° C., pH 7.4; substrate tyramine; nine inhibitor concentrations in duplicate
Procedure: The cDNA's encoding human MAO-A and MAO-B were transiently transfected into EBNA cells using the procedure described by E.-J. Schlaeger and K. Christensen (Transient Gene Expression in Mammalian Cells Grown in Serum-free Suspension Culture; Cytotechnology, 15: 1-13, 1998). After transfection, cells were homogenised by means of a Polytron homogenizer in 20 mM Tris HCl buffer, pH 8.0, containing 0.5 mM EGTA and 0.5 mM phenylmethanesulfonyl fluoride. Cell membranes were obtained by centrifugation at 45,000×g and, after two rinsing step with 20 mM Tris HCl buffer, pH 8.0, containing 0.5 mM EGTA, membranes were eventually re-suspended in the above buffer and aliquots stored at −80° C. until use.
MAO-A and MAO-B enzymatic activity was assayed in 96-well-plates using a spectrophometric assay adapted from the method described by M. Zhou and N. Panchuk-Voloshina (A One-Step Fluorometric Method for the Continuous Measurement of Monoamine Oxidase Activity, Analytical Biochemistry, 253: 169-174, 1997). Briefly, membrane aliquots were incubated in 0.1 M potassium phosphate buffer, pH 7.4, for 30 min at 37° C. with or without various concentrations of the compounds. After this period, the enzymatic reaction was started by the addition of the MAO substrate tyramine together with 1 U/ml horse-radish peroxidase (Roche Biochemicals) and 80 μM N-acetyl-3,7,-dihydroxyphenoxazine (Amplex Red, Molecular Probes). The samples were further incubated for 30 min at 37° C. in a final volume of 200 μl and absorbance was then determine at a wavelength of 570 nm using a SpectraMax plate reader (Molecular Devices). Background (non-specific) absorbance was determined in the presence of 10 μM clorgyline for MAO-A or 10 μM L-deprenyl for MAO-B.
IC50 values were determined from inhibition curves obtained using nine inhibitor concentrations in duplicate, by fitting data to a four parameter logistic equation using a computer program.

| Structure (SMILES) | IC50 |
| --- | --- |
| NC(=O)CC(=O)Nc1ccc(OCc2ccc(Cl)cc2)cc1 [Example 34, N-[4-(4-Chloro-benzyloxy)-phenyl]-malonamide] | 18 nM |
| NCC(=O)Nc1ccc(OCc2ccc(F)cc2)cc1F [Example 66, 2-Amino-N-[2-fluoro-4-(4-fluoro-benzyloxy)-phenyl]-acetamide (1:1) hydrochloride] | 16 nM |
| NC(=O)CC(=O)Nc1ccc(OCc2cc(F)c(F)cc2F)cc1 [Example 29, N-[4-(2,4,5-Trifluoro-benzyloxy)-phenyl]-malonamide] | 8 nM |
| CC(C(N)=O)C(=O)Nc1ccc(OCc2cccc(F)c2)cc1 (stereo not drawn) [Example 6, N-[4-(3-Fluoro-benzyloxy)-phenyl]-2-methyl-malonamide] | 13 nM |
| COC(=O)CC(=O)Nc1ccc(OCc2ccc(F)cc2)cc1F [Example 39, N-[2-Fluoro-4-(4-fluoro-benzyloxy)-phenyl]-malonamic acid methyl ester] | 5 nM |
| NC(=O)CC(=O)Nc1ccc(OCc2ccc(F)cc2)cc1F [Example 40, N-[2-Fluoro-4-(4-fluoro-benzyloxy)-phenyl]-malonamide] | 15 nM |
| NC(=O)C1(C(=O)Nc2ccc(OCc3cccc(F)c3)cc2)CC1 [Example 2, Cyclopropane-1,1-dicarboxylic acid amide [4-(3-fluoro-benzyloxy)-phenyl]-amide] | 7.9 nM |
| COC(=O)CC(=O)Nc1ccc(OCc2cc(F)c(F)cc2F)cc1 [Example 27, N-[4-(2,4,5-Trifluoro-benzyloxy)-phenyl]-malonamic acid methyl ester] | 11 nM |
| O=CNCC(=O)Nc1ccc(OCc2ccc(F)cc2)cc1F [Example 72, N-[2-Fluoro-4-(4-fluoro-benzyloxy)-phenyl]-2-formylamino-acetamide] | 7 nM |
| CC(=O)NCC(=O)Nc1ccc(OCc2cccc(F)c2)cc1F [Example 75, 2-Acetylamino-N-[2-fluoro-4-(3-fluoro-benzyloxy)-phenyl]-acetamide] | 13 nM |
| COC(=O)CC(=O)Nc1ccc(OCc2cccc(F)c2)cc1 [Example 1, N-[4-(3-Fluoro-benzyloxy)-phenyl]-malonamic acid methyl ester] | 11 nM |
| COC(=O)CC(=O)Nc1ccc(OCc2ccc(F)cc2)cc1 [Example 10, N-[4-(4-Fluoro-benzyloxy)-phenyl]-malonamic acid methyl ester] | 11.2 nM |
| COC(=O)CC(=O)Nc1ccc(OCc2ccc(F)cc2F)cc1 [Example 25, N-[4-(2,4-Difluoro-benzyloxy)-phenyl]-malonamic acid methyl ester] | 11 nM |
| NC(=O)CC(=O)Nc1ccc(OCc2ccc(F)cc2)cc1 [Example 11, N-[4-(4-Fluoro-benzyloxy)-phenyl]-malonamide] | 7.5 nM |
| O=CNCC(=O)Nc1ccc(OCc2cccc(F)c2)cc1F [Example 76, N-[2-Fluoro-4-(3-fluoro-benzyloxy)-phenyl]-2-formylamino-acetamide] | 16 nM |
| COC(=O)CC(=O)Nc1ccc(C=Cc2ccc(F)cc2)cc1 [Example 56, N-{4-[2-(4-Fluoro-phenyl)-vinyl]-phenyl}-malonamic acid methyl ester] | 10 nM |
| NC(=O)CC(=O)Nc1ccc(OCc2ccc(C(F)(F)F)cc2)cc1F [Example 44, N-[2-Fluoro-4-(4-trifluoromethyl-benzyloxy)-phenyl]-malonamide] | 9 nM |
| NC(=O)CC(=O)Nc1ccc(C=Cc2ccc(F)cc2)cc1 [Example 57, N-{4-[2-(4-Fluoro-phenyl)-vinyl]-phenyl}-malonamide] | 18 nM |
| CC(=O)NCC(=O)Nc1ccc(OCc2ccc(F)cc2)cc1F [Example 70, 2-Acetylamino-N-[2-fluoro-4-(4-fluoro-benzyloxy)-phenyl]-acetamide] | 11 nM |
| COC(=O)CC(=O)Nc1ccc(OCc2cc(C(F)(F)F)cc(C(F)(F)F)c2)cc1F [Example 41, N-[4-(3,5-Bis-trifluoromethyl-benzyloxy)-2-fluoro-phenyl]-malonamic acid methyl ester] | 13 nM |

Further lines, results first:

| IC50 | Structure (SMILES) |
| --- | --- |
| 6 nM | NC(=O)CC(=O)Nc1ccc(OCc2cccc(F)c2)c(Cl)c1 [Example 50, N-[3-Chloro-4-(3-fluoro-benzyloxy)-phenyl]-malonamide] |
| 10 nM | COC(=O)CC(=O)Nc1ccc(OCc2cccc(F)c2)c(Cl)c1 [Example 49, N-[3-Chloro-4-(3-fluoro-benzyloxy)-phenyl]-malonamic acid methyl ester] |
| 7.2 nM | NC(=O)CC(=O)Nc1ccc(OCc2cccc(F)c2)c(F)c1 [Example 9, N-[3-Fluoro-4-(3-fluoro-benzyloxy)-phenyl]-malonamide] |
| 14 nM | COC(=O)CC(=O)Nc1ccc(OCc2cccc(F)c2)c(C)c1 [Example 47, N-[4-(3-Fluoro-benzyloxy)-3-methyl-phenyl]-malonamic acid methyl ester] |
| 8 nM | NC(=O)CC(=O)Nc1ccc(OCc2ccc(F)cc2F)cc1 [Example 28, N-[4-(2,4-Difluoro-benzyloxy)-phenyl]-malonamide] |
| 9 nM | COC(=O)CC(=O)Nc1ccc(OCc2cccc(F)c2)cc1F [Example 14, N-[2-Fluoro-4-(3-fluoro-benzyloxy)-phenyl]-malonamic acid methyl ester] |
| 9.6 nM | COC(=O)CC(=O)Nc1ccc(OCc2cccc(F)c2)c(F)c1 [Example 8, N-[3-Fluoro-4-(3-fluoro-benzyloxy)-phenyl]-malonamic acid methyl ester] |
| 10.9 nM | NC(=O)CC(=O)Nc1ccc(OCc2cccc(F)c2)cc1 [Example 3, N-[4-(3-Fluoro-benzyloxy)-phenyl]-malonamide] |
| 19 nM | Cc1cc(NC(=O)CC(N)=O)ccc1OCc1cccc(F)c1 [Example 48, N-[4-(3-Fluoro-benzyloxy)-3-methyl-phenyl]-malonamide] |
| 16 nM | NC(=O)CC(=O)Nc1ccc(OCc2cccc(F)c2)cc1O [Example 38, N-[4-(3-Fluoro-benzyloxy)-2-hydroxy-phenyl]-malonamide] |
